Source: PubChem BioAssay (NCI)
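How tested: cells in 96-well plates exposed to compound for 48 hours at five concentrations. TGI denotes the concentration required for complete inhibition of growth.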

Experiments:
Test in all cases: NCI anticancer screen, dose series, 48 h
NCI/ADR-RES ovarian = test system: NCI/ADR-RES ovarian
NCI-H460 lung = test system: NCI-H460 lung
UO-31 renal = test system: UO-31 renal
SK-MEL-2 melanoma = test system: SK-MEL-2 melanoma
T-47D breast = test system: T-47D breast
HOP-62 NSCLC = test system: HOP-62 NSCLC
BT-549 breast = test system: BT-549 breast
SF-539 CNS = test system: SF-539 CNS
786-0 renal = test system: 786-0 renal
HCT-116 colon = test system: HCT-116 colon
MOLT-4 leukemia = test system: MOLT-4 leukemia
OVCAR-5 ovarian = test system: OVCAR-5 ovarian
TK-10 renal = test system: TK-10 renal
OVCAR-3 ovarian = test system: OVCAR-3 ovarian
RPMI-8226 leukemia = test system: RPMI-8226 leukemia
SK-MEL-28 melanoma = test system: SK-MEL-28 melanoma
NCI-H23 lung = test system: NCI-H23 lung
ACHN renal = test system: ACHN renal
SNB-19 CNS = test system: SNB-19 CNS
MCF7 breast = test system: MCF7 breast
U251 CNS = test system: U251 CNS
SK-OV-3 ovarian = test system: SK-OV-3 ovarian
COLO 205 colon = test system: COLO 205 colon
LOX IMVI melanoma = test system: LOX IMVI melanoma
UACC-62 melanoma = test system: UACC-62 melanoma
NCI-H226 lung = test system: NCI-H226 lung
A498 renal = test system: A498 renal
HOP-92 NSCLC = test system: HOP-92 NSCLC
HCT-15 colon = test system: HCT-15 colon
SF-295 CNS = test system: SF-295 CNS
RXF 393 renal = test system: RXF 393 renal
A549 NSCLC = test system: A549 NSCLC
OVCAR-4 ovarian = test system: OVCAR-4 ovarian
M14 melanoma = test system: M14 melanoma
OVCAR-8 ovarian = test system: OVCAR-8 ovarian
DU-145 prostate = test system: DU-145 prostate
KM12 colon = test system: KM12 colon
CCRF-CEM leukemia = test system: CCRF-CEM leukemia
EKVX NSCLC = test system: EKVX NSCLC
MDA-N = test system: MDA-N
SW-620 colon = test system: SW-620 colon
SK-MEL-5 melanoma = test system: SK-MEL-5 melanoma
MDA-MB-231 breast = test system: MDA-MB-231 breast
HCC-2998 colon = test system: HCC-2998 colon
UACC-257 melanoma = test system: UACC-257 melanoma
MDA-MB-435 = test system: MDA-MB-435
SR leukemia = test system: SR leukemia
CAKI-1 renal = test system: CAKI-1 renal
SF-268 CNS = test system: SF-268 CNS
K-562 leukemia = test system: K-562 leukemia
HS 578T breast = test system: HS 578T breast
SN12C renal = test system: SN12C renal
HT29 colon = test system: HT29 colon
PC-3 prostate = test system: PC-3 prostate
IGROV1 ovarian = test system: IGROV1 ovarian
SNB-75 CNS = test system: SNB-75 CNS
MALME-3M melanoma = test system: MALME-3M melanoma
NCI-H522 lung = test system: NCI-H522 lung

NS(=O)(=O)c1nnc(NS(=O)(=O)c2ccc(F)cc2)s1
TGI (NCI/ADR-RES ovarian): > 100000 nM | TGI (NCI-H460 lung): > 100000 nM | TGI (UO-31 renal): > 100000 nM | TGI (SK-MEL-2 melanoma): > 100000 nM | TGI (T-47D breast): > 100000 nM | TGI (HOP-62 NSCLC): > 100000 nM | TGI (BT-549 breast): > 100000 nM | TGI (SF-539 CNS): > 100000 nM | TGI (786-0 renal): > 100000 nM | TGI (HCT-116 colon): > 100000 nM | TGI (MOLT-4 leukemia): > 100000 nM | TGI (OVCAR-5 ovarian): > 100000 nM | TGI (TK-10 renal): > 100000 nM | TGI (OVCAR-3 ovarian): > 100000 nM | TGI (RPMI-8226 leukemia): > 100000 nM | TGI (SK-MEL-28 melanoma): > 100000 nM | TGI (NCI-H23 lung): > 100000 nM | TGI (ACHN renal): > 100000 nM | TGI (SNB-19 CNS): > 100000 nM | TGI (MCF7 breast): > 100000 nM | TGI (U251 CNS): > 100000 nM | TGI (SK-OV-3 ovarian): > 100000 nM | TGI (COLO 205 colon): > 100000 nM | TGI (LOX IMVI melanoma): > 100000 nM | TGI (UACC-62 melanoma): > 100000 nM | TGI (NCI-H226 lung): > 100000 nM | TGI (A498 renal): > 100000 nM | TGI (HOP-92 NSCLC): > 100000 nM | TGI (HCT-15 colon): > 100000 nM | TGI (SF-295 CNS): > 100000 nM | TGI (RXF 393 renal): > 100000 nM | TGI (A549 NSCLC): > 100000 nM | TGI (OVCAR-4 ovarian): > 100000 nM | TGI (M14 melanoma): > 100000 nM | TGI (OVCAR-8 ovarian): > 100000 nM | TGI (DU-145 prostate): > 100000 nM | TGI (KM12 colon): > 100000 nM | TGI (CCRF-CEM leukemia): > 100000 nM | TGI (EKVX NSCLC): > 100000 nM | TGI (MDA-N): > 100000 nM | TGI (SW-620 colon): > 100000 nM | TGI (SK-MEL-5 melanoma): > 100000 nM | TGI (MDA-MB-231 breast): > 100000 nM | TGI (HCC-2998 colon): > 100000 nM | TGI (UACC-257 melanoma): > 100000 nM | TGI (MDA-MB-435): > 100000 nM | TGI (SR leukemia): > 100000 nM | TGI (CAKI-1 renal): > 100000 nM | TGI (SF-268 CNS): > 100000 nM | TGI (K-562 leukemia): > 100000 nM | TGI (HS 578T breast): > 100000 nM | TGI (SN12C renal): > 100000 nM

CCC1(O)CC(OC2CC(N(C)C)C(OC3CC(O)C(OC4CCC(=O)C(C)O4)C(C)O3)C(C)O2)c2c(cc3c(c2O)C(=O)c2c(O)ccc(O)c2C3=O)C1C(=O)OC (configuration not stated)
TGI (NCI/ADR-RES ovarian): 259 nM | TGI (NCI-H460 lung): < 10 nM | TGI (UO-31 renal): < 10 nM | TGI (SK-MEL-2 melanoma): 14.8 nM | TGI (HT29 colon): < 10.5 nM | TGI (T-47D breast): 597 nM | TGI (HOP-62 NSCLC): 156 nM | TGI (PC-3 prostate): 393 nM | TGI (BT-549 breast): 1780 nM | TGI (IGROV1 ovarian): 1220 nM | TGI (786-0 renal): 493 nM | TGI (SNB-75 CNS): 84.6 nM | TGI (MOLT-4 leukemia): 10.1 nM | TGI (OVCAR-5 ovarian): 10800 nM | TGI (TK-10 renal): 33.9 nM | TGI (OVCAR-3 ovarian): 186 nM | TGI (RPMI-8226 leukemia): 10.9 nM | TGI (SK-MEL-28 melanoma): 211 nM | TGI (NCI-H23 lung): 34.3 nM | TGI (SNB-19 CNS): 2410 nM | TGI (MCF7 breast): 2010 nM | TGI (U251 CNS): 2220 nM | TGI (MALME-3M melanoma): 29 nM | TGI (SK-OV-3 ovarian): 13300 nM | TGI (COLO 205 colon): 13.1 nM | TGI (LOX IMVI melanoma): < 10 nM | TGI (UACC-62 melanoma): < 13.2 nM | TGI (HOP-92 NSCLC): 18.5 nM | TGI (HCT-15 colon): 18 nM | TGI (SF-295 CNS): 441 nM | TGI (NCI-H522 lung): < 10 nM | TGI (OVCAR-4 ovarian): 214 nM | TGI (M14 melanoma): 51.6 nM | TGI (OVCAR-8 ovarian): 73.9 nM | TGI (KM12 colon): 99.4 nM | TGI (CCRF-CEM leukemia): 52.8 nM | TGI (EKVX NSCLC): 116 nM | TGI (MDA-N): 25.1 nM | TGI (SW-620 colon): 3560 nM | TGI (SK-MEL-5 melanoma): 28.2 nM | TGI (MDA-MB-231 breast): 113 nM | TGI (HCC-2998 colon): < 11.2 nM | TGI (UACC-257 melanoma): 29.4 nM | TGI (MDA-MB-435): 409 nM | TGI (SR leukemia): < 10 nM | TGI (CAKI-1 renal): < 10 nM | TGI (SF-268 CNS): 208 nM | TGI (K-562 leukemia): < 10 nM | TGI (HS 578T breast): 384 nM | TGI (SN12C renal): 1180 nM
